{
  "source": "patent US20230265524A1",
  "about": "“IMMUNOGENIC RETROELEMENTS AND THEIR USE IN CANCER THERAPY” (UNIVERSITY HEALTH NETWORK, priority 2020, published 2023)",
  "key": {"[1]": {"system": "LIM1215 colorectal cancer cell lines", "experiment": "ISG relative expression in LIM1215 cells", "format": "cell-based, human", "details": "LIM1215, ADAR1 KD vs WT, 300 nM for 5 days", "description": "B) Interferon-stimulated genes (MDA5, IRF7 and DDX58) relative expression in ADAR1^WT and ADAR1^KD LIM1215 colorectal cancer cell lines treated with 300 nM 5-AZA-CdR for 5 days.\n(§1) Based on these findings, we hypothesized that ADAR1 depletion would synergize with the viral mimicry response induced by DNMTi treatment. To assess how ADAR1 depletion affects 5-AZA-CdR treated samples, we performed RNA-seq analyses in patient-derived CRC cells. […] As a molecular read-out of dsRNA pattern recognition activation, we measured MAVS aggregation in the mitochondrial fraction of cell lysates^34. […] Taken together, our findings establish that ADAR1 acts as a negative feedback loop, restricting the viral mimicry response induced by DNMTi treatment in cancer cells."}, "[2]": {"system": "patient-derived CRC cells", "experiment": "in vitro sphere initiation assay followed by limiting dilution analysis (LDA)", "format": "cell-based, human", "details": "ADAR1-depleted CRC cells treated with 5-AZA-CdR", "description": "B, The normalized percentage of reduction in sphere forming ability was calculated in each condition compared to Mock-treated.\nOne of the major challenges facing conventional chemotherapy is the persistence of cancer initiating cells (CICs), often resulting in relapse^38-40. We and others have previously shown that 5-AZA-CdR treatment can target colorectal cancer CICs by inducing the viral mimicry response^1,41. We therefore tested whether ADAR1^KD by itself or in combination with 5-AZA-CdR can decrease tumour initiation. To this end, we first employed an in vitro sphere initiation assay followed by limiting dilution analysis (LDA) using patient-derived CRC cells. […] In addition, we performed in vivo tumour initiation assays by injecting serially diluted patient-derived CRC cells into NSG immunodeficient mice and inspected tumour engraftment for up to 6 months after injection (FIG. 12F)."}, "[3]": {"system": "patient-derived xenograft CRC cells", "experiment": "subcutaneous patient-derived xenograft CRC tumour growth in NSG mice", "format": "in vivo", "details": "0.5 mg kg-1 intraperitoneal", "description": "B, Schematic representation of in vivo experimental scheme of non-infected, ADAR1^WT, ADAR1^KDA and ADAR1^KDB patient-derived xenograft CRC cells injected subcutaneously into flanks of NSG mice (n=10 mice per group; 2 tumours per mouse). Arrows represent days of treatment (0.5 mg kg-1 5-AZA-CdR by intraperitoneal injection or vehicle).\nC, Tumour volume measured at the indicated time points. Arrows represent days of treatment. ADAR1^KDA 5-AZA-CdR (n=20 tumours) and ADAR1^KDB 5-AZA-CdR (n=18 tumours at day 12 and n=14 tumours at day15) compared with non-infected (NI) 5-AZA-CdR (n=19 tumours) cohort. Data are mean±s.e.m. ****P<0.0001, Tukey-corrected two-way ANOVA\nD, Colorectal cancer tumours dissected from Vehicle and 5-AZA-CdR cohorts at day 14 post-treatment are depicted for each condition (n=5) (NI=non-infected)\nE, Tumour weight for each group at the time of dissection (day 14 after treatment). Data are mean±s.d. ****P<0.0001, Tukey-corrected ordinary-one-way ANOVA.\nFinally, we sought to investigate whether ADAR1 inhibition would synergize with epigenetic therapy to increase the anti-tumour response. […] To examine the potential synergy in vivo, we injected ADAR1^KDA/B or wildtype patient-derived xenograft CRC cells subcutaneously into immune-deficient NOD.Cg-Prkdc (NSG) mice, and treated the mice with 5-AZA-CdR or vehicle (PBS) (FIG. 12B and FIG. 13A). […]"}, "[4]": {"system": "patient-derived colorectal cancer cells (CRCs)", "experiment": "total stranded RNA-seq of repeat element expression after 5-AZA-CdR", "format": "cell-based, human", "details": "low doses of 5-AZA-CdR, 5 days, vs mock-treated", "description": "A, Effect of 5-AZA-CdR on repeat element expression in patient-derived xenograft colorectal cancer cells after 5 days of treatment. Plots show log (fold change) for 5-AZA-CdR treated cells over mock-treated cells for anti-sense (y-axis) and sense (x-axis) transcripts of each SINE, LINE and ERV repeat element (CPM). […] The significance was determined as p≤0.05 and |log FC|≥1 at each strand.\nTo identify drug-induced immunogenic retroelements on a global scale, we examined the endogenous dsRNA formation in patient-derived colorectal cancer cells (CRCs) that were treated with low doses of 5-AZA-CdR, an FDA-approved DNMTi, or mock-treated. To this end, we performed total stranded RNA-seq and assessed repetitive elements transcribed in both strands, therefore likely to produce dsRNA species."}, "[5]": {"system": "H3K4me3 and H3K27ac upstream of treatment-induced IR-Alus", "experiment": "genome-wide CUT&RUN of H3K4me3 and H3K27ac at treatment-induced IR-Alus", "format": "cell-based, human", "details": "DNMTi treatment", "text": "D, Heatmaps and average CUT & RUN profiles of H3K4me3 (left) and H3K27ac (right) signal at −50 kb/+50 kb (Upstream/downstream) of the Treatment-induced IR-Alu pairs regions. The orientation was based on the transcriptional orientation in the MDA5-protected RNA-seq data\nActive promoters and enhancers are often marked by H3K4me3 and H3K27ac, respectively. […] Importantly, we assessed the DNA methylation status of these specific regulatory regions that became H3K4me3 marked upstream of the induced IR-Alus following epigenetic therapy and found the majority of these regions to be frequently methylated before treatment. We observed that 91% of these regions were either partially or fully methylated in the panel of 51 CRC cell lines (FIG. 6C) and 94% in the panel of 988 pan-cancer cell lines (FIG. 6D). Moreover, we observed that the DNA methylation status of these regulatory regions upstream of induced IR-Alus were inversely correlated (r=−0.23, p=7.58-13) with the expression of a panel of Interferon-Stimulated Genes (n=22 ISGs) from our viral mimicry signature^1 across the 988 pan-cancer cell lines (FIG. 6E)."}, "[6]": {"system": "HT29 colorectal cancer cell lines", "experiment": "ISG relative expression in HT29 cells", "format": "cell-based, human", "details": "HT29, ADAR1 KD vs WT, 300 nM for 5 days", "description": "D) Interferon-stimulated genes (MDA5, ISG15 and DDX58) relative expression in ADAR1^WT and ADAR1^KD HT29 colorectal cancer cell lines treated with 300 nM 5-AZA-CdR for 5 days. Data are mean±s.e.m. (n=3 from three independent experiments). *P<0.05, **P<0.01, ***P<0.001, ****P<0.0001, Tukey-corrected two-way ANOVA.\nas §1"}},
  "data": [
    {"compound": "Nc1ncn([C@H]2C[C@H](O)[C@@H](CO)O2)c(=O)n1", "note": "[5-AZA-CdR]", "values": [
      {"measurement": "expression of IFN stimulated genes (ISGs)", "setting": "[1]", "result": "enhanced upon ADAR1 depletion"},
      {"measurement": "spheroid forming potential", "setting": "[2]", "result": "reduced the spheroid forming potential"},
      {"measurement": "anti-tumour activity", "setting": "[3]; ADAR1^KDA/B cells", "result": "remarkable anti-tumour activity"},
      {"measurement": "anti-tumour activity", "setting": "[3]; wildtype cells", "result": "very limited anti-tumour activity"},
      {"measurement": "sense and/or antisense transcription of repeat elements (LINEs, ERVs, SINEs)", "setting": "[4]", "result": "increased sense and/or antisense transcription of long interspersed nuclear elements (LINEs) and ERVs, but not short interspersed nuclear elements (SINEs)"},
      {"measurement": "H3K4me3 and H3K27ac levels directly upstream of treatment-induced immunogenic IR-Alus", "setting": "[5]", "result": "elevated levels of H3K4me3, but not H3K27ac"},
      {"measurement": "expression of IFN stimulated genes (ISGs)", "setting": "[6]", "result": "enhanced upon ADAR1 depletion"}
    ]}
  ]
}
